Paper PMC9432691, “Characterisation of a soil MINPP phytase with remarkable long-term stability and activity from Acinetobacter sp” (PLoS ONE, 2022)

Molecular target: T1, AtITPK1 (inositol tris/tetrakisphosphate kinase 1) (Arabidopsis thaliana, UniProt Q9SBA5)
T1 construct: gene ITPK1
T1 sequence (Q9SBA5 2-319): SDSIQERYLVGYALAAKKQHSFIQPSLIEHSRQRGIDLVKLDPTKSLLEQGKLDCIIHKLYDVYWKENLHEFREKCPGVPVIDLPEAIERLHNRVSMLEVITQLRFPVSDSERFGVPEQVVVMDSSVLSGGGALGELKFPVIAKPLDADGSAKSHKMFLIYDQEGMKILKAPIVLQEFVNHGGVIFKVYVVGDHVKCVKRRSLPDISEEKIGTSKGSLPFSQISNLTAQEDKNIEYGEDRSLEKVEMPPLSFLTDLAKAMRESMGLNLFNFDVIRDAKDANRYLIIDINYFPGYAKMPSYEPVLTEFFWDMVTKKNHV
Experiment: pyrophosphorylation assay with […] substrate, HPLC; […] conversion
Format: biochemical

O=P(O)(O)O[C@H]1[C@H](OP(=O)(O)O)[C@@H](OP(=O)(O)O)[C@H](OP(=O)(O)O)[C@@H](OP(=O)(O)O)[C@H]1OP(=O)(O)O [InsP6, myo-inositol 1,2,3,4,5,6-hexakisphosphate]
% conversion: 90 % conversion
